In US9067974B2, “Polymyxin derivatives and uses thereof” (priority 2006, dated 2015):
Bridge positions count the residues as written; N and C are the ends. Square brackets hold non-standard residues; d marks the D form. Peptide text beside a SMILES is read from it. * marks the point of attachment. Octanoyl = CCCCCCCC(=O)*; Dab = NCC[C@H](N)C(=O)O; Abu = CC[C@H](N)C(=O)O

Experiments:
[1] = system: three strains of A. baumannii; assay: E-test sensitization by NAB7061 (4 μg/ml), summary over A. baumannii strains; type: cell-based, Acinetobacter baumannii
Excerpt: (§1) The strains originated from ATCC (11 strains), CCUG (11 strains), and NCTC (The National Collection of Type Cultures, Colindale, U.K.; 2 strains). Eight strains (the F-strains) were purchased from Mobidiag Ltd., Helsinki, Finland. The source of E. coli IH3080 has been given in Example 2. Sensitization factor was defined as in Example 7.
Strains of K. pneumoniae remained somewhat more resistant to both antibiotics, and the sensitization factors varied between 10 and 500.

E. coli IH3080 = assay: Sensitization to rifampin: well diffusion growth inhibition on LB plates containing rifampin; type: cell-based, Escherichia coli; details: 4 μg of compound
E. coli IH3080 (K1:O18) = assay: Well diffusion growth inhibition on LB agar plates (direct antibacterial activity); type: cell-based, Escherichia coli
In short: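 Growth inhibition of encapsulated E. coli IH3080 (K1:O18) was measured by well diffusion on LB agar plates. A suspension of about 10^8 cells/ml in 0.9% NaCl, made from an overnight LB agar culture, was spread over the plates and the excess removed. Once dry, five 2 mm wells were drilled per plate and test solutions added, with 0.9% NaCl as control. After 18 h at 37° C, inhibition zone diameters were measured and converted to surface areas in square mm.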

E. coli CCUG41422 = assay: E-test MIC of antibiotics on Mueller-Hinton agar with or without NAB7061 (4 μg/ml); sensitization factor = MIC ratio absence/presence; type: cell-based, Escherichia coli
Procedure: (§2) MICs were determined by using E-strips (Biodisk Ltd., Solna, Sweden) according to the manufacturer's instructions.
as §1

E. coli NCTC13351 = assay: as above; type: cell-based, Escherichia coli
Procedure: as §2, §1

E. coli CCUG41421 = assay: as above; type: cell-based, Escherichia coli
Procedure: as §2, §1

E. coli CCUG41432 = assay: as above; type: cell-based, Escherichia coli
Procedure: as §2, §1

E. coli CCUG41424 = assay: as above; type: cell-based, Escherichia coli
Procedure: as §2, §1

E. coli CCUG41425 = assay: as above; type: cell-based, Escherichia coli
Procedure: as §2, §1

For `CCCCCCCC(=O)N[C@H](C(=O)N[C@@H](CC)C(=O)N[C@H]1CCNC(=O)[C@H]([C@@H](C)O)NC(=O)[C@H](CCN)NC(=O)[C@H](CCN)NC(=O)[C@H](CC(C)C)NC(=O)[C@@H](Cc2ccccc2)NC(=O)[C@H](CCN)NC1=O)[C@@H](C)O` [NAB 7061, OA-Thr-Abu-cy[Dab-Dab-DPhe-Leu-Dab-Dab-Thr-]] (Octanoyl-T[Abu][Dab][Dab][dF]L[Dab][Dab]T; lactam 3-C), the “Resulting MIC to rifampin in the presence of NAB7061 (4 μg/ml)” value [1] was at most 0.125 µg/mL, the “Antibacterial activity in the presence of rifampin (growth inhibition area around a well)” value (E. coli IH3080; rifampin 0 μg/ml) was 0 square millimeters and the “Antibacterial activity in the presence of rifampin (growth inhibition area around a well)” value (E. coli IH3080; rifampin 0.1 μg/ml) was 113 square millimeters. For the same compound, the “Antibacterial activity in the presence of rifampin (growth inhibition area around a well)” value (E. coli IH3080; rifampin 1.0 μg/ml) was 155 square millimeters, the “Antibacterial activity (growth inhibition area around a well)” value (E. coli IH3080 (K1:O18); 4 μg of compound per well) was 0 square millimeters and the “Antibacterial activity (growth inhibition area around a well)” value (E. coli IH3080 (K1:O18); 10 μg of compound per well) was 50 square millimeters. The “MIC of clarithromycin in the presence of 4 μg/ml of NAB 7061” value (shortened to “MIC of clarithromycin”) (E. coli CCUG41422) was 0.25 µg/mL, the “Sensitization factor to rifampin” value (E. coli CCUG41422; NAB 7061 4 μg/ml) was 170-256 and the “MIC of clarithromycin” value (E. coli NCTC13351) was 0.032 µg/mL. For the same compound, the “MIC of rifampin in the presence of 4 μg/ml of NAB 7061” value (E. coli NCTC13351) was 0.032 to 0.047 µg/mL, the “Sensitization factor to rifampin” value (E. coli NCTC13351; NAB 7061 4 μg/ml) was 340-500 and the “MIC of clarithromycin” value (E. coli CCUG41421) was 0.125 µg/mL. For the same compound, the “MIC of clarithromycin” value (E. coli CCUG41432) was 0.064 µg/mL, the “MIC of rifampin in the presence of 4 μg/ml of NAB 7061” value (E. coli CCUG41432) was 0.032 µg/mL and the “Sensitization factor to rifampin” value (E. coli CCUG41432; NAB 7061 4 μg/ml) was 180-250. For the same compound, the “MIC of clarithromycin” value (E. coli CCUG41424) was 0.125 µg/mL, the “Sensitization factor to rifampin” value (E. coli CCUG41424; NAB 7061 4 μg/ml) was 85-94 and the “MIC of clarithromycin” value (E. coli CCUG41425) was 0.047 µg/mL.
